Assay results: patent US20230241149A1, “TRANSTHYRETIN TETRAMER STABILIZING AGENT, AND PREVENTING AGENT OR PROGRESSION SUPPRESSING AGENT FOR TRANSTHYRETIN AMYLOIDOSIS” (KANEKA CORPORATION, priority 2020, published 2023)

What was measured:
transthyretin tetramer [1] = target: T1, transthyretin tetramer (Homo sapiens, UniProt P02766); experiment: Stabilization of transthyretin tetramer in serum ex vivo (Test Example 1; urea denaturation, electrophoresis and Western blotting); format: biochemical; design: from tissue; host or cells: human serum (blood of three middle-aged or older persons)
Method: The white circles represent the ratios in the serums added with the glabridin. The black circles represent the ratios in the serums added with the medium-chain fatty acid triglyceride solution containing a hydrophobic licorice extract.
Serums were obtained from blood taken from three middle-aged or older persons. The medium-chain fatty acid triglyceride solution containing a hydrophobic licorice extract and the glabridin that were obtained in Example 2 were added to each serum (added in such a manner that the amount of the glabridin was 0, 10, and 50 μM respectively). The resulting mixtures were incubated at 25° C. for 30 minutes, and then denatured with urea. Using these samples, the transthyretins (the tetramers and the monomers) in the blood were quantitated by electrophoresis and Western blotting. The stabilization effect was investigated using the ratio of the monomers to the tetramers (monomer/tetramer).

transthyretin tetramer [2] = target: T1, transthyretin tetramer; conditions: two molecules of glabridin per tetramer; cited from earlier work

ratio of the monomers to the tetramers (monomer/tetramer) (transthyretin tetramer [1]; serum from three middle-aged or older persons, glabridin added at concentrations up to 50 μM, 25° C. 30 minutes, then denatured with urea): did not change
stabilization effect of the transthyretin (decreasing the ratio of the monomers and increasing the tetramers) (transthyretin tetramer [1]; serum, added so that the amount of glabridin was 0, 10, 50 μM): not observed
SMILES: CC1(C)C=Cc2c(ccc3c2OC[C@@H](c2ccc(O)cc2O)C3)O1 [glabridin]
effect on transthyretin tetramer and formation of amyloid fibrils (transthyretin tetramer [2]): binding to and stabilizing a transthyretin tetramer
